Measured values reported in patent US20230416225A1, “DIAMINOPYRIMIDINE CARBOXAMIDE INHIBITORS OF HPK1” (MERCK SHARP & DOHME LLC, priority 2020, published 2023).

Biological target: T1, Human HPK1, catalytic domain (Homo sapiens, UniProt Q92918)
T1 construct: purchased Carna
T1 sequence (Q92918 1-346): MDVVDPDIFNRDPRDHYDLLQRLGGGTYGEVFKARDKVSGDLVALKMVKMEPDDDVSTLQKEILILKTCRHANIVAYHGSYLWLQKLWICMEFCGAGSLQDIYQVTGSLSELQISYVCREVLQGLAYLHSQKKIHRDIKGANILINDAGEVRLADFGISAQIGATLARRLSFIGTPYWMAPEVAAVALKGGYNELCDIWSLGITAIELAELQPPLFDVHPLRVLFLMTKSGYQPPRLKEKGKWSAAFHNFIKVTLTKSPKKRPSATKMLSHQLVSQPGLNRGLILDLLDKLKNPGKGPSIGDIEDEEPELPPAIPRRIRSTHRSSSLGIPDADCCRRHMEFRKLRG
Experiment: HPK1-SLP76 TR-FRET assay
Type: biochemical
Conditions: 75 pM HPK1, 10 uM ATP, 10 nM SLP76, 30 min compound pre-incubation

| Structure (SMILES) | IC50 |
| --- | --- |
| COc1cc2c(cc1Nc1ncc(C(N)=O)c(Nc3cccc(Cl)c3F)n1)CN(C)CC2 [Example 4-12, 4-[(3-chloro-2-fluorophenyl)amino]-2-[(6-methoxy-2-methyl-1,2,3,4-tetrahydroisoquinolin-7-yl)amino]pyrimidine-5-carboxamide] | 0.65 nM |
| NC(=O)c1cnc(Nc2ccc(C3CC3)cc2)nc1Nc1cccc2c1CCNC2=O [Example 25-13, 2-[(4-cyclopropylphenyl)amino]-4-[(1-oxo-1,2,3,4-tetrahydroisoquinolin-5-yl)amino]pyrimidine-5-carboxamide] | 14 nM |
| COc1cc2c(cc1Nc1ncc(C(N)=O)c(Nc3cccc4c3OCC4)n1)CN(C)CC2 [Example 7-7, 4-[(2,3-dihydro-1-benzofuran-7-yl)amino]-2-[(6-methoxy-2-methyl-1,2,3,4-tetrahydroisoquinolin-7-yl)amino]pyrimidine-5-carboxamide] | 0.03 nM |
| CC(C)(C)c1cccc(Nc2ncc(C(N)=O)c(Nc3cccc4c3CCNC4=O)n2)c1 [Example 25-20, 2-[(3-tert-butylphenyl)amino]-4-[(1-oxo-1,2,3,4-tetrahydroisoquinolin-5-yl)amino]pyrimidine-5-carboxamide] | 3.31 nM |
| Cc1cc(Nc2ncc(C(N)=O)c(Nc3cccc4c3CCNC4=O)n2)cc(C(F)(F)F)c1 [Example 25-29, 2-{[3-methyl-5-(trifluoromethyl)phenyl]amino}-4-[(1-oxo-1,2,3,4-tetrahydroisoquinolin-5-yl)amino]pyrimidine-5-carboxamide] | 65.2 nM |
| COc1cc2c(cc1Nc1ncc(C(N)=O)c(NCc3ccccc3O)n1)CN(C)CC2 [Example 26-57, 4-{[(2-hydroxyphenyl)methyl]amino}-2-[(6-methoxy-2-methyl-1,2,3,4-tetrahydroisoquinolin-7-yl)amino]pyrimidine-5-carboxamide] | 3.19 nM |
| COc1cc2c(cc1Nc1ncc(C(N)=O)c(Nc3ccc(F)cc3)n1)CN(C)CC2 [Example 7-21, 4-[(4-fluorophenyl)amino]-2-[(6-methoxy-2-methyl-1,2,3,4-tetrahydroisoquinolin-7-yl)amino]pyrimidine-5-carboxamide] | 0.51 nM |
| NC(=O)c1cnc(Nc2cc3n(n2)CCC3)nc1Nc1cccc2c1CCNC2=O [Example 7-58, 2-[(5,6-dihydro-4H-pyrrolo[1,2-b]pyrazol-2-yl)amino]-4-[(1-oxo-1,2,3,4-tetrahydroisoquinolin-5-yl)amino]pyrimidine-5-carboxamide] | 3.65 nM |
| COc1cc2c(cc1Nc1ncc(C(N)=O)c(Nc3ccccc3Br)n1)CN(C1COC1)CC2 [Example 9-2, 4-[(2-bromophenyl)amino]-2-{[6-methoxy-2-(oxetan-3-yl)-1,2,3,4-tetrahydroisoquinolin-7-yl]amino}pyrimidine-5-carboxamide] | 1.42 nM |
| Cc1cccc(F)c1Nc1nc(Nc2cnn(CC3CC3)c2)ncc1C(N)=O [Example 4-22, 2-{[1-(cyclopropylmethyl)-1H-pyrazol-4-yl]amino}-4-[(2-fluoro-6-methylphenyl)amino] pyrimidine-5-carboxamide] | 384 nM |
| COc1cc2c(cc1Nc1ncc(C(N)=O)c(Nc3cccc(Cl)c3)n1)CN(C)CC2 [Example 7-25, 4-[(3-chlorophenyl)amino]-2-[(6-methoxy-2-methyl-1,2,3,4-tetrahydroisoquinolin-7-yl)amino]pyrimidine-5-carboxamide] | 1.04 nM |
| COc1cc2c(cc1Nc1ncc(C(N)=O)c(NC3CCN(C4CC4)C3)n1)CN(C)CC2 (stereo not shown) [Example 26-11, 4-[(1-cyclopropylpyrrolidin-3-yl)amino]-2-[(6-methoxy-2-methyl-1,2,3,4-tetrahydroisoquinolin-7-yl)amino]pyrimidine-5-carboxamide] | 26 nM |
| COc1cc(F)c(Nc2nc(Nc3cc4c(cc3OC)CCN(C)C4)ncc2C(N)=O)c(F)c1 [Example 4-15, 4-[(2,6-difluoro-4-methoxyphenyl)amino]-2-[(6-methoxy-2-methyl-1,2,3,4-tetrahydroisoquinolin-7-yl)amino]pyrimidine-5-carboxamide] | 0.53 nM |
| COc1cc2c(cc1Nc1ncc(C(N)=O)c(Nc3ccc(Br)cc3)n1)CN(C)CC2 [Example 7-72, 4-[(4-bromophenyl)amino]-2-[(6-methoxy-2-methyl-1,2,3,4-tetrahydroisoquinolin-7-yl)amino]pyrimidine-5-carboxamide] | 1.52 nM |
| CS(=O)(=O)c1ccc(Nc2ncc(C(N)=O)c(Nc3cccc4c3CCNC4)n2)cc1 [Example 7-1, 2-{[4-(methylsulfonyl)phenyl]amino}-4-[(1,2,3,4-tetrahydroisoquinolin-5-yl)amino]pyrimidine-5-carboxamide] | 0.66 nM |
| NC(=O)c1cnc(NC2(c3ccccc3F)CC2)nc1Nc1cccc2c1CCNC2=O [Example 25-23, 2-{[1-(2-fluorophenyl)cyclopropyl]amino}-4-[(1-oxo-1,2,3,4-tetrahydroisoquinolin-5-yl)amino]pyrimidine-5-carboxamide] | 346 nM |

| Structure (SMILES) | IC50 |
| --- | --- |
| CN1CCc2cc(F)c(Nc3ncc(C(N)=O)c(Nc4cccc5c4OC(C)(C)C5)n3)cc2C1 [Example 4-32, 4-[(2,2-dimethyl-2,3-dihydro-1-benzofuran-7-yl)amino]-2-[(6-fluoro-2-methyl-1,2,3,4-tetrahydroisoquinolin-7-yl)amino]pyrimidine-5-carboxamide] | 1.13 nM |
| COc1cc2c(cc1Nc1ncc(C(N)=O)c(Nc3c(C)cccc3F)n1)CN(CC(C)(C)O)CC2 [Example 5-2] | 2.54 nM |
| COc1cc2c(cc1Nc1ncc(C(N)=O)c(Nc3ccccc3Br)n1)CN(C1CC(C#N)C1)CC2 (stereo not shown) [Example 9-6, 4-((2-bromophenyl)amino)-2-((2-(3-cyanocyclobutyl)-6-methoxy-1,2,3,4-tetrahydroisoquinolin-7-yl)amino)pyrimidine-5-carboxamide] | 4.57 nM |
| Cn1cc([C@@H]2C[C@H]2C(=O)Nc2ncc(C(N)=O)c(Nc3ccccc3Br)n2)cn1 (racemic) [Example 22-1, 4-((2-bromophenyl)amino)-2-((trans)-2-(1-methyl-1H-pyrazol-4-yl)cyclopropane-1-carboxamido)pyrimidine-5-carboxamide] | 370 nM |
| COc1cc2c(cc1Nc1ncc(C(N)=O)c(Nc3ccccc3-c3nccs3)n1)CN(C)CC2 [Example 14-2, 2-[(6-methoxy-2-methyl-1,2,3,4-tetrahydroisoquinolin-7-yl)amino]-4-{[2-(1,3-thiazol-2-yl)phenyl]amino}pyrimidine-5-carboxamide] | 0.26 nM |
| NC(=O)c1cnc(Nc2cnn(C3CCC3)c2)nc1Nc1cccc2c1CCNC2=O [Example 7-51, 2-[(1-cyclobutyl-1H-pyrazol-4-yl)amino]-4-[(1-oxo-1,2,3,4-tetrahydroisoquinolin-5-yl)amino]pyrimidine-5-carboxamide] | 4.21 nM |
| COc1cc2c(cc1Nc1ncc(C(N)=O)c(Nc3ccc(F)cc3F)n1)CN(C)CC2 [Example 4-10, 4-[(2,4-difluorophenyl)amino]-2-[(6-methoxy-2-methyl-1,2,3,4-tetrahydroisoquinolin-7-yl)amino]pyrimidine-5-carboxamide] | 1.34 nM |
| COc1ccc(S(C)(=O)=O)cc1Nc1ncc(C(N)=O)c(Nc2cccc3c2CCNC3)n1 [Example 7-63, 2-{[2-methoxy-5-(methylsulfonyl)phenyl]amino}-4-[(1,2,3,4-tetrahydroisoquinolin-5-yl)amino]pyrimidine-5-carboxamide] | 103 nM |
| COc1cc2c(cc1Nc1ncc(C(N)=O)c(Nc3cccc4c3CCN(CC(F)(F)F)C4)n1)CN(C)CC2 [Example 7-29, 2-[(6-methoxy-2-methyl-1,2,3,4-tetrahydroisoquinolin-7-yl)amino]-4-{[2-(2,2,2-trifluoroethyl)-1,2,3,4-tetrahydroisoquinolin-5-yl]amino}pyrimidine-5-carboxamide] | 0.35 nM |
| CNC(=O)c1cccc(Nc2nc(Nc3cc4c(cc3OC)CCN(C)C4)ncc2C(N)=O)c1 [Example 7-38, 2-[(6-methoxy-2-methyl-1,2,3-tetrahydroisoquinolin-7-yl)amino]-4-{[3-(methylcarbamoyl)phenyl]amino} pyrimidine-5-carboxamide] | 7.77 nM |
| COc1cc2c(cc1Nc1ncc(C(N)=O)c(Nc3c(F)cccc3Br)n1)CN(C)CC2 [Example 4-4, 4-[(2-bromo-6-fluorophenyl)amino]-2-[(6-methoxy-2-methyl-1,2,3,4-tetrahydroisoquinolin-7-yl)amino]pyrimidine-5-carboxamide] | 0.12 nM |
| Cn1ncc(Nc2ncc(C(N)=O)c(Nc3cccc4c3CCNC4=O)n2)c1C(F)(F)F [Example 7-56, 2-{[1-methyl-5-(trifluoromethyl)-1H-pyrazol-4-yl]amino}-4-[(1-oxo-1,2,3,4-tetrahydroisoquinolin-5-yl)amino]pyrimidine-5-carboxamide] | 249 nM |
| CCc1ccc(Nc2ncc(C(N)=O)c(Nc3cccc4c3CCNC4=O)n2)cc1 [Example 25-9, 2-[(4-ethylphenyl)amino]-4-[(1-oxo-1,2,3,4-tetrahydroisoquinolin-5-yl)amino]pyrimidine-5-carboxamide] | 12.1 nM |
| COc1cc2c(cc1Nc1ncc(C(N)=O)c(Nc3cc(C4CC4)nn3C)n1)CN(C)CC2 [Example 7-82, 4-((3-cyclopropyl-1-methyl-1H-pyrazol-5-yl)amino)-2-((6-methoxy-2-methyl-1,2,3,4-tetrahydroisoquinolin-7-yl)amino)pyrimidine-5-carboxamide] | 651 nM |
| COc1cc2c(cc1Nc1ncc(C(N)=O)c(Nc3c(C)nn(C)c3C)n1)CN(C)CC2 [Example 7-80, 2-((6-methoxy-2-methyl-1,2,3,4-tetrahydroisoquinolin-7-yl)amino)-4-((1,3,5-trimethyl-1H-pyrazol-4-yl)amino)pyrimidine-5-carboxamide] | 0.91 nM |
